According to article PMC11346425, “Sulfoquinovosyl diacylglycerol is required for dimerisation of the Rhodobacter sphaeroides reaction centre-light harvesting 1 core complex” (Biochemical Journal, 2024):

Key:
Experiment in all cases: light-driven cytochrome c2 oxidation at […] nm, steady state
Format in all cases: biochemical
[1] = molecular target: T1, monomeric RC-LH1 core complex (RC3-LH1_14-XY) (Cereibacter sphaeroides, UniProt Q3J1A5+Q3J1A6); details: 50 uM ubiquinone-2, 5 uM reduced cytochrome c2, 810 nm LED, pH 8, 0.03% beta-DDM; electron acceptor; 0.05 uM RC-LH1
T1 construct: gene pufL; native, beta-DDM-solubilised membranes, sucrose gradient monomer band; 1 RC, C-shaped LH1 of 14 subunits; with Reaction center protein M chain; Reaction center protein H chain; Light-harvesting protein B-875 alpha chain; Light-harvesting protein B-875 beta chain; Intrinsic membrane protein PufX; Protein-Y

[2] = molecular target: T1, monomeric RC-LH1 core complex (RC3-LH1_14-XY); details: 50 uM ubiquinone-2, 5 uM reduced cytochrome c2, 810 nm LED, pH 8, 0.03% beta-DDM; electron acceptor
[3] = molecular target: T2, dimeric RC-LH1 core complex (Cereibacter sphaeroides, UniProt Q3J1A5+Q3J1A6); details: 50 uM ubiquinone-2, 5 uM reduced cytochrome c2, 810 nm LED, pH 8, 0.03% beta-DDM; electron acceptor; 0.01 uM RC-LH1
T2 construct: gene pufL; native, beta-DDM-solubilised membranes, sucrose gradient dimer band; 2 RC, S-shaped LH1 of 28 subunits; with Reaction center protein M chain; Reaction center protein H chain; Light-harvesting protein B-875 alpha chain; Light-harvesting protein B-875 beta chain; Intrinsic membrane protein PufX; Protein-Y; Protein-Z

## COC1=C(OC)C(=O)C(C/C=C(\C)CCC=C(C)C)=C(C)C1=O [ubiquinone-2]
[1]
  light-driven cytochrome c2 oxidation at 550 nm, steady state: Turnover assays for monomeric complexes from WT, PufX R49L R53L, ΔolsBA and ΔsqdB mutants
[2]
  light-driven cytochrome c2 oxidation at 550 nm, steady state: light-driven oxidation rate of cytochrome c2 by monomeric and dimeric complexes in the presence of ubiquinone-2
[3]
  light-driven cytochrome c2 oxidation at 550 nm, steady state: light-driven oxidation rate of cytochrome c2 by monomeric and dimeric complexes in the presence of ubiquinone-2
